Read-outs that look alike come from different tables or passages of the source.
Assay type: physicochemical
Conditions: for Iodide formed: 50 mM agent, 10 mM TRIS, pH 7.4, autoclaved then UV 18 h
Method: The lamps were switched on and the solutions irradiated for 18 to 24 hours for the ultraviolet (UV) lamps or 72 to 90 hours for the visible (VIS) light lamps. At the end of the selected irradiation time, the cuvettes were removed from the photolysis chamber and mixed by inversion 2-times. The caps were then removed and 40 microliter aliquots taken and diluted with 1 mL of an aqueous solution containing ˜0.9 mg/mL sodium thiosulfate. The thiosulfate solution converted any I2, IO3^−, and I3^− present in the solution tor such that total iodine species could be determined in one assay.
The diluted solutions were assayed by high pressure liquid chromatography (HPLC) using a 4.6×250 mm, C-18, 5 micron particle size, reversed phase column with detection at 280 nm for the contrast agent and 230 nm for the thiosulfate and the iodide ion (r). A mobile phase of 30:70 methanol:aqueous buffer (50 mM KH2PO4+7 mL/L 40% tetrabutyl ammonium hydroxide) at 0.75 mL/min was used for elution. Injection volume was 20 microliters. External standards were prepared containing each contrast agent, potassium iodide, and sodium thiosulfate solution and analyzed along with the irradiated samples. The results were reported as weight percentage iodide formed (mg iodide/mg contrast agent times 100).
Aqueous solutions were prepared containing 50 mM iodinated contrast agent, 10 mM tromethamine HCl buffer (TRIS), with and without sulfobutylether beta-cyclodextrin with an average degree of substitution-7 (SBE7-β-CD), or 2-hydroxypropyl beta-cyclodextrin with an average degree of substitution of ˜6.3 (HP6.3-β-CD) or ˜4.3 (HP4.3-β-CD). The iohexol solution was prepared by dissolving solid iohexol powder while the other solutions were prepared by diluting commercial formulated products and adding sufficient TRIS buffer to reach 10 mM. The pH of the solutions was adjusted to 7.4 with 0.1N hydrochloric acid.
Aliquots of the solutions were irradiated with visible light for 72 hours (0.52 million lux hours). Other aliquots were autoclaved for 20 minutes at 121° C., cooled to room temperature and then irradiated with ultraviolet light for 18 hours (119 watt hours/m2). The solutions were then processed, analyzed and reported as in Example 2, except that the chromatographic peaks of the contrast agents were evaluated at 300 nm for both samples and standards.
Aqueous solutions were prepared containing 50 mM iohexol, 0, 2.5, 5, 7.5, or 10 mM tromethamine HCl (TRIS) buffer, with and without 2.5 mM sulfobutylether beta-cyclodextrin with an average degree of substitution-7 (SBE7-β-CD). The pH of the solutions was adjusted to 7.4 with 0.1N hydrochloric acid and the solutions were transferred to glass vials. The vials were stoppered, crimp-capped and autoclaved for 20 minutes at 121° C. The pH of the autoclaved solutions was measured after the solutions were at room temperature.
Aliquots of the autoclaved solutions were irradiated with visible light for 72 hours (0.52 million lux hours) and other aliquots irradiated with ultraviolet light for 18 hours (119 watt hours/m2). The solutions were then processed, analyzed and reported as in Example 2, except that the chromatographic peak of the iohexol was evaluated at 300 nm for both samples and standards.
Aqueous formulations were prepared containing iodinated contrast agents at concentrations used commercially in medical procedures. Sulfobutylether-cyclodextrin, sodium salt, average degree of substitution ˜7 (SBE7CD) was added at varying agent:CD mole ratios. The formulations were placed in glass vials, sealed with rubber stoppers and aluminum crimps, and autoclaved at 121° C. for 20 minutes. […]

## CC(=O)N(CC(O)CN(C(C)=O)c1c(I)c(C(=O)NCC(O)CO)c(I)c(C(=O)NCC(O)CO)c1I)c1c(I)c(C(=O)NCC(O)CO)c(I)c(C(=O)NCC(O)CO)c1I (stereo not shown) [Iodixanol, iodixanol]
agent:SBE7-β-CD 1:0.1
  Iodide formed: 0.220 wt %
No SCD (1:0)
  Iodide formed: 0.292 wt %
Iodixanol 270 mg I/mL, pH 7.4, agent:SBE7CD 1:0.05, autoclaved then UV 24 h
  Iodide Formed, UV: 0.0791 wt %
Iodixanol 270 mg I/mL, pH 7.4, agent:SBE7CD 1:0.05, autoclaved then VIS 72 h
  Iodide Formed, VIS: 0.0288 wt %
Iodixanol 270 mg I/mL, pH 7.4, no SCD (1:0), autoclaved then UV 24 h
  Iodide Formed, UV: 0.0845 wt %
Iodixanol 270 mg I/mL, pH 7.4, no SCD (1:0), autoclaved then VIS 72 h
  Iodide Formed, VIS: 0.0325 wt %
Iodixanol 320 mg I/mL, pH 7.4, agent:SBE7CD 1:0.05, autoclaved then UV 24 h
  Iodide Formed, UV: 0.0743 wt %
Iodixanol 320 mg I/mL, pH 7.4, agent:SBE7CD 1:0.05, autoclaved then VIS 72 h
  Iodide Formed, VIS: 0.0251 wt %
Iodixanol 320 mg I/mL, pH 7.4, no SCD (1:0), autoclaved then UV 24 h
  Iodide Formed, UV: 0.0751 wt %
Iodixanol 320 mg I/mL, pH 7.4, no SCD (1:0), autoclaved then VIS 72 h
  Iodide Formed, VIS: 0.0265 wt %

## COCC(=O)Nc1c(I)c(C(=O)NCC(O)CO)c(I)c(C(=O)N(C)CC(O)CO)c1I (stereo not shown) [Iopromide, iopromide]
agent:SBE7-β-CD 1:0.1
  Iodide formed: 0.330 wt %
No SCD (1:0)
  Iodide formed: 0.487 wt %
Iopromide 150 mg I/mL, pH 7.4, agent:SBE7CD 1:0.05, autoclaved then UV 24 h
  Iodide Formed, UV: 0.110 wt %
Iopromide 150 mg I/mL, pH 7.4, agent:SBE7CD 1:0.05, autoclaved then VIS 72 h
  Iodide Formed, VIS: 0.0671 wt %
Iopromide 150 mg I/mL, pH 7.4, no SCD (1:0), autoclaved then UV 24 h
  Iodide Formed, UV: 0.148 wt %
Iopromide 150 mg I/mL, pH 7.4, no SCD (1:0), autoclaved then VIS 72 h
  Iodide Formed, VIS: 0.0735 wt %
Iopromide 240 mg I/mL, pH 7.4, agent:SBE7CD 1:0.05, autoclaved then UV 24 h
  Iodide Formed, UV: 0.113 wt %
Iopromide 240 mg I/mL, pH 7.4, agent:SBE7CD 1:0.05, autoclaved then VIS 72 h
  Iodide Formed, VIS: 0.0413 wt %
Iopromide 240 mg I/mL, pH 7.4, no SCD (1:0), autoclaved then UV 24 h
  Iodide Formed, UV: 0.129 wt %
Iopromide 240 mg I/mL, pH 7.4, no SCD (1:0), autoclaved then VIS 72 h
  Iodide Formed, VIS: 0.0504 wt %
Iopromide 300 mg I/mL, pH 7.4, agent:SBE7CD 1:0.05, autoclaved then UV 24 h
  Iodide Formed, UV: 0.102 wt %
Iopromide 300 mg I/mL, pH 7.4, agent:SBE7CD 1:0.05, autoclaved then VIS 72 h
  Iodide Formed, VIS: 0.0426 wt %
Iopromide 300 mg I/mL, pH 7.4, no SCD (1:0), autoclaved then UV 24 h
  Iodide Formed, UV: 0.110 wt %
Iopromide 300 mg I/mL, pH 7.4, no SCD (1:0), autoclaved then VIS 72 h
  Iodide Formed, VIS: 0.0493 wt %
Iopromide 370 mg I/mL, pH 7.4, agent:SBE7CD 1:0.05, autoclaved then UV 24 h
  Iodide Formed, UV: 0.0780 wt %
Iopromide 370 mg I/mL, pH 7.4, agent:SBE7CD 1:0.05, autoclaved then VIS 72 h
  Iodide Formed, VIS: 0.0351 wt %
Iopromide 370 mg I/mL, pH 7.4, no SCD (1:0), autoclaved then UV 24 h
  Iodide Formed, UV: 0.0989 wt %
Iopromide 370 mg I/mL, pH 7.4, no SCD (1:0), autoclaved then VIS 72 h
  Iodide Formed, VIS: 0.0392 wt %

Source: patent publication US20220096664A1, “STABILIZED FORMULATIONS CONTAINING IODINATED CONTRAST AGENTS AND CYCLODEXTRINS” (Verrow Pharmaceuticals, Inc., priority 2012, published 2022)
